# Data as given in patent US8114862B2, “TGR5 modulators and methods of use thereof” (Intercept Pharmaceuticals, Inc., priority 2008, dated 2012).
# Key:
# [1] = system: Diet-Induced Obesity Mouse Model; experiment: Diet-induced obesity mouse model (Example 9); assay type: in vivo
# bovine serum albumin = bovine serum albumin (Bos taurus, UniProt P02769); experiment: Albumin binding by equilibrium dialysis; assay type: in vitro ADME; conditions: 100 μM BA in 5% bovine serum albumin-saline, pH 7.2
# Protocol: The extent of albumin binding was evaluated by equilibrium dialysis at a fixed BA-albumin ratio. BA was dissolved at a concentration of 100 μM in 5% bovine serum albumin-saline solution (pH 7.2) and left to stand for 24 h at 25° C. Two milliliters of this solution was dialyzed in cellulose sacs having a molecular weight cut-off of 12-14,000 against 25 ml of saline solution. The system was equilibrated by mechanical gently shaking for 72 h at 25° C. BA concentrations of the dialyzed solution (corresponding to the free unbound fraction) and of the starting solution were determined with HPLC-ESI-MS/MS in the same conditions of the previous analysis.
# The percent of albumin binding was calculate from the initial BA concentration and from the unbound concentration in the dialyzed fraction.
# [2] = Choleretic effect (bile flow) in bile fistula rat, id and iv infusion; assay type: in vivo; conditions: for SV0: maximum bile secretion rate: 1 (μmol/min)/kg bw over 1 h
# STC-1 cells = experiment: STC-1 cell experiments (Cox activity, oxygen consumption, ATP/ADP, GLP-1 release); assay type: cell-based, mouse
# HF-fed C57BL/6J mice = experiment: Dietary intervention in HF-fed C57BL/6J mice (Example 20); assay type: in vivo, mouse
# Protocol: Age-matched male mice were used for all experiments. Genetically engineered mouse models (GEMMs), i.e., TGR5-Tg and TGR5^−/− mice, were generated as described in the Supplemental Data. […] Protoc. Mol. Chapter. […] Protoc. Mol. Biol. Chapter 29, Unit 29A, 22). […] Plasma GLP-1 levels were measured by ELISA (Millipore) on blood collected by retro-orbital puncture.
# DIO and db/db mice = experiment: Glucose homeostasis and insulin sensitivity in DIO and db/db mice (Example 21); assay type: in vivo, mouse
# Protocol: (§1) Animals were housed and bred according to standardized procedures (Argmann and Auwerx, 2006b). Age-matched male mice were used for all experiments. Genetically engineered mouse models (GEMMs), i.e., TGR5-Tg and TGR5^−/− mice, were generated as described in the Supplemental Data. […]; Research Diets) for at least 8 weeks, as mentioned in the text and figure legends. […] Mouse phenotyping experiments were performed according to EMPRESS protocols (see, for example, Empress (European Mouse Phenotyping Resource of Standardised Screening) website) and were aimed to assess food and water intake, body composition (Argmann et al., 2006a, Curr. Protoc. Mol. Biol. Chapter 29, Unit 29A, 23), energy expenditure (Argmann et al., 2006a, Curr. Protoc. Mol. Biol. Chapter 29, Unit 29A, 23), glucose and lipid homeostasis (Argmann et al., 2006b, Curr. Protoc. Mol. Biol. Chapter 29, Unit 29A, 22); Heikkinen et al., 2007, Curr. Protoc. Mol. Chapter. 29, Unit 29B, 23; Mataki et al., 2007, Mol. Cell. Biol. 27, 8330), and plasma biochemistry (Argmann and Auwerx, 2006a, Curr. Protoc. Mol. Biol. Chapter 29, Unit 29A, 22). Tissues and blood were collected and processed for histopathology, blood chemistry, and gene expression according to standardized procedures (Argmann and Auwerx, 2006a; Feige et al., 2008b; Mark et al., 2007; Watanabe et al., 2006). Hyperinsulinemic euglycemic clamp studies were performed as described (Feige et al., 2008b), with minor modifications including a change in the initial insulin bolus (30 mU/kg) and insulin infusion rate (10 mU/min/kg). Plasma GLP-1 levels were measured by ELISA (Millipore) on blood collected by retro-orbital puncture. […].
# To further characterize the impact of compound Ih3e on glucose homeostasis and insulin sensitivity, a hyperinsulinemic euglycemic glucose clamp was performed on these DIO mice. […]. These effects correlated with normalization in the expression of key genes involved in hepatic glucose homeostasis (FIG. 21G).
# TGR5+/+ and TGR5-/- mice = experiment: OGTT in HF-fed TGR5+/+ and TGR5-/- mice before and after treatment; assay type: in vivo, mouse; conditions: for body weight after treatment: HF diet, 30 mg/kg/d 4 weeks
# Protocol: […]. […] […]; not statistically different). […]; not statistically different).
# as §1
# [3] = Bile flow in bile fistula rat after femoral infusion (Example 22); assay type: in vivo
# PPARδ = molecular target: T1, PPARδ (Homo sapiens, UniProt Q03181); experiment: PPARδ coactivator recruitment assay
# T1 sequence (Q03181 211-439 limits assumed): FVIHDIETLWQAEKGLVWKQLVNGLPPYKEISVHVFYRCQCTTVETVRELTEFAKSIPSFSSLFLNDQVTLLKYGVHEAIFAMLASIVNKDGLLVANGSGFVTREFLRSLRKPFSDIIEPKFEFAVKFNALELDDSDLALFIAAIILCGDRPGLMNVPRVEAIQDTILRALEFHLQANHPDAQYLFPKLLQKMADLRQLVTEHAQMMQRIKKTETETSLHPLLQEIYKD
# Protocol: Lanthascreen assay (Invitrogen) was used for nulear receptor selectivity assay. The kit uses a terbium-labeled anti-GST antibody, a fluorescein-labeled coactivator peptide, and a NR ligand-binding domain that is tagged with glutathione-S-transferase (GST) in a homogenous mix-and-read assay format. […] Following 1 hour incubation in the dark, TR-FRET measurements were made in the Envision. […] The data was analyzed using GraphPad Prism using the sigmoidal curve equation with variable slope to obtain EC50 values.
# Sequence of bovine serum albumin (P02769 25-607): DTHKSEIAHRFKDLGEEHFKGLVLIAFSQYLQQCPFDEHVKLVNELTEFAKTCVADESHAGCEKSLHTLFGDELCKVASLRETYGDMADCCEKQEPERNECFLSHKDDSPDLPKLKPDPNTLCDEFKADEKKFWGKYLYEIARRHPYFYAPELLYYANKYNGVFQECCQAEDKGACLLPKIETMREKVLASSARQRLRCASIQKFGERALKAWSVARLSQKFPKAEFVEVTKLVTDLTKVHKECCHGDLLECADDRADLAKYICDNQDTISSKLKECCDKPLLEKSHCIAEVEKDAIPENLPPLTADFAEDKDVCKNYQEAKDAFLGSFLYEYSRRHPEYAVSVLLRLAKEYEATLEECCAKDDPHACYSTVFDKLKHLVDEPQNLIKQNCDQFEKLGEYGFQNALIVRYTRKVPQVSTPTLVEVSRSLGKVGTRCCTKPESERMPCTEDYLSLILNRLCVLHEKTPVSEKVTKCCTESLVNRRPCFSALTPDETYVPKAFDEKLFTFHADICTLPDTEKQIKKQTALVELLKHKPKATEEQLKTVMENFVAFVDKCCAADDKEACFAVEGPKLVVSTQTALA
smiles,measurement,setting,value
"CC[C@H]1[C@@H](O)[C@@H]2[C@H](C[C@H](O)[C@]3(C)[C@@H]([C@H](C)C[C@H](C)C(=O)O)CC[C@@H]23)[C@@]2(C)CC[C@@H](O)C[C@@H]12 [Ih3e, 6α-ethyl-(23S)-methyl-3α,7α,12α trihydroxy-5β-cholan-24-oic acid]",plasma insulin levels,"[1]; after 10 weeks, chow fed and high fat fed mice vs vehicle",increased
same,glucose levels,"[1]; after 12 weeks, high fat fed mice",lower
same,food/water intake,[1]; high fat diet vs vehicle,slight increase
same,glucose tolerance,[1]; high fat fed mice,improves glucose tolerance
same,"percentage of change in body, organ and adipose tissue weight compared to chow diet",[1]; high fat fed mice,reduced percentage change
same,blood glucose,[1]; high fat fed mice vs vehicle,lower
same,heart rate,[1]; high fat fed mice vs vehicle,lower heart rate
same,"liver enzymes (LDH, ASAT, ALAT)",[1]; high fat fed mice vs vehicle,lower
same,"plasma lipids (total cholesterol, HDL-chol, LDL-chol, triglycerides)",[1]; high fat fed mice vs vehicle,lower
same,insulin levels after a test meal,"[1]; high fat fed mice vs vehicle, at about 12 minutes",peaked to higher levels
same,body weight gain,"[1]; high fat fed mice, 16 weeks, vs vehicle",less weight gain
same,Albumin Binding,bovine serum albumin,62%
same,duration of increased bile flow,[2]; duodenal infusion,at least 3 hours
same,maximum bile flow rate,"[2]; duodenal infusion 1 μmol/kg/min, 1 hour",about 120 μL/min/kg
same,SV0: maximum bile secretion rate,[2]; id infusion,112 ± 12 (μL/min)/kg bw
same,bile flow rate,[2]; iv (femoral) infusion,significantly increased the bile flow rate
same,SV0: maximum bile secretion rate,[2]; iv infusion,(131 ± 11) (μL/min)/kg bw
same,Cox activity,STC-1 cells,cAMP-dependent increase in Cox activity
same,cellular oxygen consumption,STC-1 cells,increase in cellular oxygen consumption
same,impact on GLP-1 release,STC-1 cells; prevented by RNA interference or MDL-12-330A,enhanced by TGR5 overexpression
same,"expression level of classical target genes of FXR in the liver (CYP7A1, BSEP)",HF-fed C57BL/6J mice; 30 mg/kg/day,complete absence of changes
same,plasma levels,HF-fed C57BL/6J mice; 30 mg/kg/day admixed with diet,within the range of those of CA and 3-muricholic acid
same,increase in liver and fat pad mass,HF-fed C57BL/6J mice; HF-fed,attenuated
same,plasma triglycerides and nonesterified fatty acids (NEFAs),HF-fed C57BL/6J mice; HF-fed mice,significant drop
same,fat mass,"HF-fed C57BL/6J mice; HF-fed, relative to HF-fed controls",sharp reduction in fat mass
same,liver fibrosis,HF-fed C57BL/6J mice; Sirius red staining,absence of liver fibrosis
same,attenuation of body weight gain,"HF-fed C57BL/6J mice; after 10 weeks of treatment, relative to HF-fed controls",about 15%
same,plasma levels of liver enzymes,HF-fed C57BL/6J mice; compared to HF-fed controls,markedly reduced
same,respiratory quotient,HF-fed C57BL/6J mice; dark period,significantly reduced
same,energy expenditure (O2 consumption and CO2 production),HF-fed C57BL/6J mice; indirect calorimetry,enhanced energy expenditure
same,gene expression profiling of BAT,"HF-fed C57BL/6J mice; mouse, in vivo",increase of several mitochondrial genes involved in energy expenditure
same,liver steatosis,"HF-fed C57BL/6J mice; oil red O staining, liver lipid content",reduction in liver steatosis
same,fasting glucose and insulin levels,DIO and db/db mice; DIO and db/db mice,decreased
same,glucose-stimulated insulin secretion profile,DIO and db/db mice; DIO and db/db mice,improvement
same,glucose tolerance after an oral challenge with glucose,"DIO and db/db mice; DIO and db/db mice, 30 mkd",robustly improved glucose tolerance
same,glucose infusion rate required to maintain euglycemia,"DIO and db/db mice; DIO mice, hyperinsulinemic euglycemic clamp",virtually identical to that observed in CD-fed control mice
same,body weight,"DIO and db/db mice; HF-fed C57BL6/J mice, 30 mg/kg/d for 8 weeks",32.26 ± 0.95 g
same,"hepatic glucose production, glucose disposal rate, suppression of glucose production by insulin","DIO and db/db mice; HF-fed mice, clamp",normalized these parameters to the values observed in CD-fed mice
same,insulin-stimulated 14C-deoxyglucose uptake,DIO and db/db mice; clamp,reduced insulin resistance in liver and muscle
same,expression of key genes involved in hepatic glucose homeostasis,"DIO and db/db mice; mouse, in vivo",normalization
same,insulin secretion during oral glucose challenge,TGR5+/+ and TGR5-/- mice; TGR5+/+ fed a HF diet,normalization of insulin secretion
same,glucose tolerance,"TGR5+/+ and TGR5-/- mice; TGR5+/+ fed a HF diet, 4 weeks 30 mkd",significantly improved glucose tolerance
same,body weight after treatment,TGR5+/+ and TGR5-/- mice; TGR5+/+ mice,43.50 ± 3.47 g
same,effects on glucose tolerance and insulin secretion,TGR5+/+ and TGR5-/- mice; TGR5-/- mice,blunted
same,body weight after treatment,TGR5+/+ and TGR5-/- mice; TGR5-/- mice,52.30 ± 2.72 g
same,duration of increased bile flow after the end of the infusion period,[3]; iv infusion,at least 2 hours
same,bile flow rate,[3]; iv infusion 1 μmol/min/kg for 1 h,significantly increased the bile flow rate
same,PPARδ Activation EC50,PPARδ,No activity
